# Data from patent publication US20260130933A1, “PHARMACEUTICAL COMPOSITION FOR PREVENTION OR TREATMENT OF NEPHROPATHY AND/OR DIABETES MELLITUS, COMPRISING ENAVOGLIFLOZIN” (DAEWOONG PHARMACEUTICAL CO., LTD., priority 2022, published 2026).
# Test: Example 2: phase 3 trial, enavogliflozin 0.3 mg vs dapagliflozin 10 mg once a day for 24 weeks added to metformin in patients with type 2 diabetes (same efficacy, exploratory and safety endpoints)
# Assay type: in vivo, human
# Details: for fasting Total cholesterol, Mean (SD) / fasting Total cholesterol, Median / Change from baseline in Total cholesterol, ANCOVA LS mean (SE) / Change from baseline in Total cholesterol, Mean (SD) / Change from baseline in total cholesterol, Median: modified per-protocol set 1; for fasting Total cholesterol, Mean (SD) / fasting Total cholesterol, Median / Change from baseline in FPG, ANCOVA LS mean (SE) / Change from baseline in FPG, Mean (SD) / Change from baseline in FPG, Median / Change from baseline in HbA1c, ANCOVA LS mean (SE) / Change from baseline in HbA1c, Mean (SD) / Change from baseline in HbA1c, Median / Change from baseline in body weight, ANCOVA LS mean (SE) / Change from baseline in body weight, Mean (SD) / Change from baseline in body weight, Median / Change from baseline in fasting c-peptide, ANCOVA LS mean (SE) / Change from baseline in fasting c-peptide, Mean (SD) / Change from baseline in fasting c-peptide, Median / FPG, Mean (SD) / FPG, Median / HbA1c, Mean (SD) / HbA1c, Median / Subjects achieving HbA1c target of <6.5%, (%) / Subjects achieving therapeutic glycemic response, (%) / body weight, Mean (SD) / body weight, Median / fasting c-peptide, Mean (SD) / fasting c-peptide, Median / Change from baseline in Total cholesterol, ANCOVA LS mean (SE) / Change from baseline in Total cholesterol, Mean (SD) / Change from baseline in total cholesterol, Median: enavogliflozin 0.3 mg, dapagliflozin 10 mg; for Change from baseline in FPG, ANCOVA LS mean (SE) / Change from baseline in FPG, Mean (SD) / Change from baseline in FPG, Median / Change from baseline in HbA1c, ANCOVA LS mean (SE) / Change from baseline in HbA1c, Mean (SD) / Change from baseline in HbA1c, Median / Change from baseline in body weight, ANCOVA LS mean (SE) / Change from baseline in body weight, Mean (SD) / Change from baseline in body weight, Median / Change from baseline in fasting c-peptide, ANCOVA LS mean (SE) / Change from baseline in fasting c-peptide, Mean (SD) / Change from baseline in fasting c-peptide, Median / FPG, Mean (SD) / FPG, Median / HbA1c, Mean (SD) / HbA1c, Median / Subjects achieving HbA1c target of <6.5%, (%) / Subjects achieving therapeutic glycemic response, (%) / body weight, Mean (SD) / body weight, Median / fasting c-peptide, Mean (SD) / fasting c-peptide, Median: per-protocol set
# Method: Subjects who met the inclusion/exclusion criteria were administered a placebo of the clinical trial drug under single-blind (subject blinding) conditions during a 2-week run-in period while continuing to receive metformin. […] The randomized subjects were administered two tablets of the clinical trial drug for each administration group once a day, and then visited the institution at weeks 6, 12, 18, and 24 during the 24-week administration period to conduct efficacy and safety evaluations.
# • 1. Change in HbA1c at week 24 after administration of clinical trial drug compared to Visit 2 (randomization)
# • 1. Change in HbA1c at each time point of weeks 6, 12, and 18 after administration of clinical trial drug compared to Visit 2 (randomization) • 2. Change in FPG at each time point of weeks 6, 12, 18, and 24 after administration of clinical trial drug compared to Visit 2 (randomization) • 3. Proportion of subjects achieving HbA1c<7% at each time point of weeks 6, 12, 18, and 24 after administration of clinical trial drug • 4. Proportion of subjects achieving HbA1c<6.5% at each time point of weeks 6, 12, 18, and 24 after administration of clinical trial drug • 5. Proportion of subjects achieving therapeutic response (HbA1c change (HbA1c at Visit 2-HbA1c at each evaluation time point)>0.5% or HbA1c<7% at each evaluation time point compared to Visit 2 (randomization)) at each time point of weeks 6, 12, 18 and 24 after administration of clinical trial drug
# • 1. Change in fasting c-peptide at each time point of weeks 6, 12, 18, and 24 after administration of clinical trial drug compared to Visit 2 (randomization) • 2. Change in body weight at each time point of weeks 6, 12, 18, and 24 after administration of clinical trial drug compared to Visit 2 (randomization) • 3. Change in fasting lipid concentration (total cholesterol, LDL-C, HDL-C, and triglycerides) at each time point of weeks 6, 12, 18, and 24 after administration of clinical trial drug compared to Visit 2 (randomization) • 4. Changes in systolic or diastolic blood pressure at each time point of weeks 6, 12, 18, and 24 after administration of clinical trial drug compared to Visit 2 (randomization) • 5. Changes in β-cell function and insulin resistance measured by HOMA-β and HOMA-IR at each time point of weeks 6, 12, 18, and 24 after administration of clinical trial drug compared to Visit 2 (randomization) • 6. Changes in renal function-related indicators (UACR, UGCR) measured by UACR at each time point of weeks 6, 12, 18, and 24 after administration of clinical trial drug compared to Visit 2 (randomization) • 7. Changes in obesity-related indicators (adiponectin, leptin) at each time point of weeks 6, 12, 18, and 24 after administration of clinical trial drug compared to Visit 2 (randomization)
# [1] = week 24, listed as dapagliflozin
smiles,measurement,setting,value
"CCOc1ccc(Cc2cc([C@@H]3O[C@H](CO)[C@@H](O)[C@H](O)[C@H]3O)ccc2Cl)cc1 [Dapagliflozin, reference compound]","fasting Total cholesterol, Mean (SD)",week 12,143.19(28.59) mg/dL
same,"fasting Total cholesterol, Median",week 12,138.00 mg/dL
same,"Change from baseline in FPG, ANCOVA LS mean (SE)",week 12,-30.11 mg/dL
same,"Change from baseline in FPG, Mean (SD)",week 12,-31.89 mg/dL
same,"Change from baseline in FPG, Median",week 12,-23.50 mg/dL
same,"Change from baseline in HbA1c, ANCOVA LS mean (SE)",week 12,−0.79 % p
same,"Change from baseline in HbA1c, Mean (SD)",week 12,−0.74 % p
same,"Change from baseline in HbA1c, Median",week 12,−0.66 % p
same,"Change from baseline in body weight, ANCOVA LS mean (SE)",week 12,−2.63(0.23) kg
same,"Change from baseline in body weight, Mean (SD)",week 12,−2.61(1.66) kg
same,"Change from baseline in body weight, Median",week 12,-2.55 kg
same,"Change from baseline in fasting c-peptide, ANCOVA LS mean (SE)",week 12,−0.09(0.02) ng/mL
same,"Change from baseline in fasting c-peptide, Mean (SD)",week 12,−0.08(0.18) ng/mL
same,"Change from baseline in fasting c-peptide, Median",week 12,-0.10 ng/mL
same,"FPG, Mean (SD)",week 12,117.78 mg/dL
same,"FPG, Median",week 12,116.50 mg/dL
same,"HbA1c, Mean (SD)",week 12,6.94%
same,"HbA1c, Median",week 12,6.83%
same,"Subjects achieving HbA1c target of <6.5%, (%)",week 12,(26.14) %
same,"Subjects achieving therapeutic glycemic response, (%)",week 12,(79.55) %
same,"body weight, Mean (SD)",week 12,68.19(11.65) kg
same,"body weight, Median",week 12,66.90 kg
same,"fasting c-peptide, Mean (SD)",week 12,0.66(0.23) ng/mL
same,"fasting c-peptide, Median",week 12,0.65 ng/mL
same,"FPG change from baseline, LS mean (SE)",week 18,−31.13(1.63) mg/dL
same,"HOMA-IR change from baseline, LS mean (SE)",week 18,−1.47(0.12)
same,"HOMA-β change from baseline, LS mean (SE)",week 18,13.49(3.08)
same,"HbA1c change from baseline, LS mean (SE)",week 18,−0.70(0.06) % p
same,"LDL-C change from baseline, LS mean (SE)",week 18,2.58(1.89) mg/dL
same,Subjects achieving HbA1c target of <7%,week 18,(57.47) %
same,Subjects achieving HbA1c<6.5%,week 18,25.29%
same,Subjects achieving therapeutic response (HbA1c change >0.5% or HbA1c<7%),week 18,73.56%
same,"UACR change from baseline, LS mean (SE)",week 18,−12.95(5.11) g/kg
same,"diastolic blood pressure change from baseline, LS mean (SE)",week 18,−4.10(0.81) mmHg
same,"fasting c-peptide change from baseline, LS mean (SE)",week 18,−0.06(0.19) ng/ml
same,"leptin change from baseline, LS mean (SE)",week 18,−1.23(0.53) ng/mL
same,Subjects achieving HbA1c target of <7%,"week 18, listed as dapagliflozin",57.47%
same,"Change from baseline in Total cholesterol, ANCOVA LS mean (SE)",week 18,9.57(2.20) mg/dL
same,"Change from baseline in Total cholesterol, Mean (SD)",week 18,10.18(22.74) mg/dL
same,"Change from baseline in total cholesterol, Median",week 18,9.00 mg/dL
same,"fasting Total cholesterol, Mean (SD)",week 18,148.48(30.10) mg/dL
same,"fasting Total cholesterol, Median",week 18,151.50 mg/dL
same,"Change from baseline in FPG, ANCOVA LS mean (SE)",week 18,-31.13 mg/dL
same,"Change from baseline in FPG, Mean (SD)",week 18,-32.55 mg/dL
same,"Change from baseline in FPG, Median",week 18,-26.00 mg/dL
same,"Change from baseline in HbA1c, ANCOVA LS mean (SE)",week 18,−0.70 % p
same,"Change from baseline in HbA1c, Mean (SD)",week 18,−0.66 % p
same,"Change from baseline in HbA1c, Median",week 18,−0.61 % p
same,"Change from baseline in body weight, ANCOVA LS mean (SE)",week 18,−3.16(0.26) kg
same,"Change from baseline in body weight, Mean (SD)",week 18,−3.19(1.93) kg
same,"Change from baseline in body weight, Median",week 18,-3.00 kg
same,"Change from baseline in fasting c-peptide, ANCOVA LS mean (SE)",week 18,−0.06(0.02) ng/mL
same,"Change from baseline in fasting c-peptide, Mean (SD)",week 18,−0.06(0.19) ng/mL
same,"Change from baseline in fasting c-peptide, Median",week 18,-0.03 ng/mL
same,"FPG, Mean (SD)",week 18,116.53 mg/dL
same,"FPG, Median",week 18,115.00 mg/dL
same,"HbA1c, Mean (SD)",week 18,7.02%
same,"HbA1c, Median",week 18,6.90%
same,"Subjects achieving HbA1c target of <6.5%, (%)",week 18,(25.29) %
same,"Subjects achieving therapeutic glycemic response, (%)",week 18,(73.56) %
same,"body weight, Mean (SD)",week 18,67.54(11.96) kg
same,"body weight, Median",week 18,67.00 kg
same,"fasting c-peptide, Mean (SD)",week 18,0.69(0.24) ng/mL
same,"fasting c-peptide, Median",week 18,0.66 ng/mL
same,"FPG change from baseline, LS mean (SE)",week 24,−29.14(1.82) mg/dL
same,"HOMA-IR change from baseline, LS mean (SE)",week 24,−1.31(0.14)
same,"HOMA-β change from baseline, LS mean (SE)",week 24,11.93(3.25)
same,"HbA1c change from baseline, LS mean (SE)",week 24,−0.75 % p
same,"HbA1c change from baseline, Mean (SD)",week 24,−0.71 % p
same,"HbA1c, Mean",week 24,6.97%
same,"LDL-C change from baseline, LS mean (SE)",week 24,0.93(1.98) mg/dL
same,Subjects achieving HbA1c target of <7%,week 24,(62.22) %
same,Subjects achieving HbA1c<6.5%,week 24,27.78%
same,Subjects achieving therapeutic response (HbA1c change >0.5% or HbA1c<7%),week 24,75.56%
same,"UACR change from baseline, LS mean (SE)",week 24,−17.37(3.48) g/kg
same,"UGCR change from baseline, LS mean (SE)",week 24,44.94(2.18) mg/mg
same,"diastolic blood pressure change from baseline, LS mean (SE)",week 24,−4.26(0.67) mmHg
same,"fasting c-peptide change from baseline, LS mean (SE)",week 24,−0.04(0.26) ng/ml
same,"leptin change from baseline, LS mean (SE)",week 24,−1.28(0.53) ng/mL
same,"HbA1c change from baseline, LS mean (SE)",[1],−0.75(0.06) % p
same,"HbA1c change from baseline, Mean (SD)",[1],−0.71(0.76) % p
same,Subjects achieving HbA1c target of <7%,[1],62.22%
same,"Change from baseline in Total cholesterol, ANCOVA LS mean (SE)",week 24,6.74(2.30) mg/dL
same,"Change from baseline in Total cholesterol, Mean (SD)",week 24,9.15(22.59) mg/dL
same,"Change from baseline in total cholesterol, Median",week 24,10.00 mg/dL
same,"fasting Total cholesterol, Mean (SD)",week 24,147.02(27.55) mg/dL
same,"fasting Total cholesterol, Median",week 24,145.00 mg/dL
same,"Change from baseline in FPG, ANCOVA LS mean (SE)",week 24,-29.14 mg/dL
same,"Change from baseline in FPG, Mean (SD)",week 24,-31.42 mg/dL
same,"Change from baseline in FPG, Median",week 24,-24.00 mg/dL
same,"Change from baseline in body weight, ANCOVA LS mean (SE)",week 24,−3.58(0.34) kg
same,"Change from baseline in body weight, Mean (SD)",week 24,−3.60(2.14) kg
same,"Change from baseline in body weight, Median",week 24,-3.40 kg
same,"Change from baseline in fasting c-peptide, ANCOVA LS mean (SE)",week 24,−0.04(0.02) ng/mL
same,"Change from baseline in fasting c-peptide, Mean (SD)",week 24,−0.04(0.26) ng/mL
same,"Change from baseline in fasting c-peptide, Median",week 24,-0.07 ng/mL
same,"FPG, Mean (SD)",week 24,117.91 mg/dL
same,"FPG, Median",week 24,116.50 mg/dL
same,"Subjects achieving HbA1c target of <6.5%, (%)",week 24,(27.78) %
same,"Subjects achieving therapeutic glycemic response, (%)",week 24,(75.56) %
same,"body weight, Mean (SD)",week 24,66.92(11.89) kg
same,"body weight, Median",week 24,66.05 kg
same,"fasting c-peptide, Mean (SD)",week 24,0.70(0.30) ng/mL
same,"fasting c-peptide, Median",week 24,0.66 ng/mL
